The target in this assay is T1, human F508del CFTR (Homo sapiens, UniProt P13569, DEL508-508).
T1 construct: expressed in transfected cells; host or cells: Fisher Rat Thyroid (FRT) cells
Nature of the assay: CFTR-YFP High Throughput Assay. It is filed as cell-based. The following applies: FRT cells expressing human F508del CFTR and YFP; for Emax: EMax normalized to the positive control, read-out: % Efficacy. An outline of the steps:
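Corrector mode: 24-26 h compound exposure (2 nM-40 μM, 37° C) of FRT cells carrying human F508del CFTR and YFP-H148Q/I152L, followed by washing and 60-120 min RT stimulation with 20 μM forskolin and 30 μM P3. CFTR activity is the least-squares-fitted rate of YFP quenching (Ex 500/Em 540 nm) after iodide addition.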

A value given as a limit tells only on which side of the number the result lay.

T1 sequence (P13569 with tags, fused parts or gaps DEL508-508): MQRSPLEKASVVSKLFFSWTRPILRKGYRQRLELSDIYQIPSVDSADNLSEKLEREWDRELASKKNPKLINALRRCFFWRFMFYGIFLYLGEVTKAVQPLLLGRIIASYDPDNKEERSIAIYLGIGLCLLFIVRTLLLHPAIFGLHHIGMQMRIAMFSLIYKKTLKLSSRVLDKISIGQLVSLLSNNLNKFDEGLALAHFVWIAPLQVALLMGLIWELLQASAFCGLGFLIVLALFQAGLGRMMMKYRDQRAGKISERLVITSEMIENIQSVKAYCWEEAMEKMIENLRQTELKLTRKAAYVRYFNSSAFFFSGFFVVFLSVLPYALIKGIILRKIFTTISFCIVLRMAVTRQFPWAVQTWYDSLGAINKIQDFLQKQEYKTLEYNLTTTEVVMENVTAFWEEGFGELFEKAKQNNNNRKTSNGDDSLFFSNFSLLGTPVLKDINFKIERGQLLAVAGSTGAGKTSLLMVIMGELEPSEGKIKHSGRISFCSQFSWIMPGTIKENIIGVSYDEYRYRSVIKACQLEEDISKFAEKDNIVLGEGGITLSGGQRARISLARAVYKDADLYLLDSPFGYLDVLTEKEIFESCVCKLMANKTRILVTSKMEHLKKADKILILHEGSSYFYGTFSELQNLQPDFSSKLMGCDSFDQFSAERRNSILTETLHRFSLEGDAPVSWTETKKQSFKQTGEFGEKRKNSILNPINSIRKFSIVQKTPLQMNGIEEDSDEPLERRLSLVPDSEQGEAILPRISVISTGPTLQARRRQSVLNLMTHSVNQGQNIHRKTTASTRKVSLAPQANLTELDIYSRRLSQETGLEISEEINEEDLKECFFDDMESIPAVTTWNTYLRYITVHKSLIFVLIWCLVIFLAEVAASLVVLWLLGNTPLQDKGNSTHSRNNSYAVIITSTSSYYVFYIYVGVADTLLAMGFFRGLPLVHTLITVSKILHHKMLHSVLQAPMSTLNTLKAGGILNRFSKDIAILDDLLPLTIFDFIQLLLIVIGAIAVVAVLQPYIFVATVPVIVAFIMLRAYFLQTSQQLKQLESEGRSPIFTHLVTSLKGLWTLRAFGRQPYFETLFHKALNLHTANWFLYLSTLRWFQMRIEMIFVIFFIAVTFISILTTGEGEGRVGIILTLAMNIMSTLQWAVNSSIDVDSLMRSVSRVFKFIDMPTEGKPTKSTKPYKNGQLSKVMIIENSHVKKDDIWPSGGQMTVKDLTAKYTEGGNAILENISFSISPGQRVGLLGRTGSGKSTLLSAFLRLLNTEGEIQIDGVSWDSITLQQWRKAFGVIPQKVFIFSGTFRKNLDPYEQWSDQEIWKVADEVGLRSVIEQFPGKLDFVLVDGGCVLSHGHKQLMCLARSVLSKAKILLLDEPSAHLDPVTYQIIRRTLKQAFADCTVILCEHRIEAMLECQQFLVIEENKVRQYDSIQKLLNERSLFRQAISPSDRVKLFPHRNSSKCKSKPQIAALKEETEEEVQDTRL

In the case of `CCN(C(=O)c1nn(-c2ccc(C)cc2)c(=O)c2c1c1c(OC)cccc1n2C)c1ccccc1` [Example 195, N-ethyl-9-methoxy-5-methyl-4-oxo-N-phenyl-3-(p-tolyl)-4,5-dihydro-3H-pyridazino[4,5-b]indole-1-carboxamide], the Emax is 30 to 80% and the EC50 (in general, the concentration needed to bring the measured effect to its halfway point) was less than 10 µM.
In the same order, the values of `CCN(C(=O)c1nn(-c2ccc(C)cc2)c(=O)c2c1c1c(C)cccc1n2C)c1ccccc1` [Example 196, N-ethyl-5,9-dimethyl-4-oxo-N-phenyl-3-(p-tolyl)-4,5-dihydro-3H-pyridazino[4,5-b]indole-1-carboxamide] are greater than 80% and greater than 20 µM.
Regarding `CCN(C(=O)c1nn(Cc2ccccc2)c(=O)c2c1c1ccccc1n2C)c1ccccc1` [Example 197, 3-benzyl-N-ethyl-5-methyl-4-oxo-N-phenyl-4,5-dihydro-3H-pyridazino[4,5-b]indole-1-carboxamide], the Emax lay in the range of 30 to 80%.
Same read-out and setting: under `CCN(C(=O)c1nn(C2CCN(Cc3ccccc3)CC2)c(=O)c2c1c1ccccc1n2C)c1ccccc1` [Example 198, 3-(1-benzylpiperidin-4-yl)-N-ethyl-5-methyl-4-oxo-N-phenyl-4,5-dihydro-3H-pyridazino[4,5-b]indole-1-carboxamide] stands 30 to 80%.
For the compound `CCN(C(=O)c1nn(C2CCN(C)CC2)c(=O)c2c1c1ccccc1n2C)c1ccccc1` [Example 199, N-ethyl-5-methyl-3-(1-methylpiperidin-4-yl)-4-oxo-N-phenyl-4,5-dihydro-3H-pyridazino[4,5-b]indole-1-carboxamide], the Emax fell in the range of 10 to 30% and the EC50 is greater than 20 µM.
In the same order, the values of `CCN(C(=O)c1nn(C2CCN(S(=O)(=O)c3ccc4c(c3)OC(F)(F)O4)CC2)c(=O)c2c1c1ccccc1n2C)c1ccccc1` [Example 200, 3-(1-((2,2-difluorobenzo[d][1, 3]dioxol-5-yl)sulfonyl)piperidin-4-yl)-N-ethyl-5-methyl-4-oxo-N-phenyl-4,5-dihydro-3H-pyridazino[4,5-b]indole-1-carboxamide] are 30 to 80% and less than 10 µM.
Turning to `CCN(C(=O)c1nn(C(C)C)c(=O)c2c1c1ccccc1n2C)c1cccc(Cl)c1` [Example 201, N-(3-chlorophenyl)-N-ethyl-3-isopropyl-5-methyl-4-oxo-4,5-dihydro-3H-pyridazino[4,5-b]indole-1-carboxamide], the Emax is 30 to 80%.
On the same count and under the same terms, under `CCN(C(=O)Cn1nc(C(=O)N(CC)c2cccc(Cl)c2)c2c3ccccc3n(C)c2c1=O)c1ccc2c(c1)OC(F)(F)O2` [Example 202, N-(3-chlorophenyl)-3-(2-((2,2-difluorobenzo[d][1,3]dioxol-5-yl)(ethyl)amino)-2-oxoethyl)-N-ethyl-5-methyl-4-oxo-4,5-dihydro-3H-pyridazino[4,5-b]indole-1-carboxamide] stands 30 to 80%; under `CCc1ccc(N(CC)C(=O)Cn2nc(C(=O)N(CC)c3cccc(Cl)c3)c3c4ccccc4n(C)c3c2=O)cc1` [Example 203, N-(3-chlorophenyl)-N-ethyl-3-(2-(ethyl(4-ethylphenyl)amino)-2-oxoethyl)-5-methyl-4-oxo-4,5-dihydro-3H-pyridazino[4,5-b]indole-1-carboxamide], 30 to 80%.
Still for that read-out and setting: next, `CCN(C(=O)c1nn(C2CCCCC2)c(=O)c2c1c1ccccc1n2C)c1cccc(Cl)c1` [Example 204, N-(3-chlorophenyl)-3-cyclohexyl-N-ethyl-5-methyl-4-oxo-4,5-dihydro-3H-pyridazino[4,5-b]indole-1-carboxamide]: 30 to 80%.
Same read-out and setting: next, `CCN(C(=O)c1nn(C(C)C)c(=O)c2c1c1ccccc1n2C)c1cc(Cl)ccc1C#N` [Example 205, N-(5-chloro-2-cyanophenyl)-N-ethyl-3-isopropyl-5-methyl-4-oxo-4,5-dihydro-3H-pyridazino[4,5-b]indole-1-carboxamide]: 30 to 80%.
Turning to `CCN(CC)C(=O)c1nn(CC(=O)N(CC)c2ccc3c(c2)OC(F)(F)O3)c(=O)c2c1c1ccccc1n2C` [Example 206, 3-(2-((2,2-difluorobenzo[d][1, 3]dioxol-5-yl)(ethyl)amino)-2-oxoethyl)-N,N-diethyl-5-methyl-4-oxo-4,5-dihydro-3H-pyridazino[4,5-b]indole-1-carboxamide], the Emax lay within 30 to 80%.
Regarding `CCN(C(=O)c1nn(C)c(=O)c2c1c1ccccc1n2C)c1ccccc1` [Example 207, N-ethyl-3,5-dimethyl-4-oxo-N-phenyl-4,5-dihydro-3H-pyridazino[4,5-b]indole-1-carboxamide], the Emax was 30 to 80% and the EC50 was less than 10 µM.
In the same order, the values of `CC(C)n1nc(C(=O)N2CCCCC2)c2c3ccccc3n(C)c2c1=O` [Example 208, 3-isopropyl-5-methyl-1-(piperidine-1-carbonyl)-3,5-dihydro-4H-pyridazino[4,5-b]indol-4-one] are 10 to 30% and less than 10 µM.
In the same order, the values of `CCN(C(=O)c1nn(C)c(=O)c2c1c1ccccc1n2C)c1cccc(Cl)c1` [Example 209, N-(3-chlorophenyl)-N-ethyl-3,5-dimethyl-4-oxo-4,5-dihydro-3H-pyridazino[4,5-b]indole-1-carboxamide] are 30 to 80% and less than 10 µM.
In the case of `CCOc1ccc(N(CC)C(=O)c2nn(C(C)C)c(=O)c3c2c2ccccc2n3C)cc1` [Example 210, N-(4-ethoxyphenyl)-N-ethyl-3-isopropyl-5-methyl-4-oxo-4,5-dihydro-3H-pyridazino[4,5-b]indole-1-carboxamide], the Emax lay within 30 to 80% and the EC50 was less than 10 µM.
In the same order, the values of `CCN(C(=O)c1nn(C)c(=O)c2c1c1ccccc1n2C)c1ccc2c(c1)OC(F)(F)O2` [Example 211, N-(2,2-difluorobenzo[d][1,3]dioxol-5-yl)-N-ethyl-3,5-dimethyl-4-oxo-4,5-dihydro-3H-pyridazino[4,5-b]indole-1-carboxamide] are 30 to 80% and less than 10 µM.
In the same order, the values of `CC(C)N(C(=O)c1nn(Cc2ccccc2)c(=O)c2c1c1ccccc1n2C)c1ccccc1` [Example 212, 3-benzyl-N-isopropyl-5-methyl-4-oxo-N-phenyl-4,5-dihydro-3H-pyridazino[4,5-b]indole-1-carboxamide] are 30 to 80% and less than 10 µM.
In the same order, the values of `CCN(CC)C(=O)c1nn(CC(=O)N(CC)c2cccc(Cl)c2)c(=O)c2c1c1ccccc1n2C` [Example 213, 3-(2-((3-chlorophenyl)(ethyl)amino)-2-oxoethyl)-N,N-diethyl-5-methyl-4-oxo-4,5-dihydro-3H-pyridazino[4,5-b]indole-1-carboxamide] are 30 to 80% and less than 10 µM.
With `CCN(C(=O)c1nn(CC(=O)N2CCCCC2)c(=O)c2c1c1ccccc1n2C)c1ccccc1` [Example 214, N-ethyl-5-methyl-4-oxo-3-(2-oxo-2-(piperidin-1-yl)ethyl)-N-phenyl-4,5-dihydro-3H-pyridazino[4,5-b]indole-1-carboxamide], the Emax lay in the range of 30 to 80% and the EC50 is less than 10 µM.
In the same order, the values of `CCN(C(=O)c1nn(CC(=O)N2CCOCC2)c(=O)c2c1c1ccccc1n2C)c1ccccc1` [Example 215, N-ethyl-5-methyl-3-(2-morpholino-2-oxoethyl)-4-oxo-N-phenyl-4,5-dihydro-3H-pyridazino[4,5-b]indole-1-carboxamide] are 30 to 80% and less than 10 µM.
In the same order, the values of `CCN(C(=O)c1nn(CC2CCCO2)c(=O)c2c1c1ccccc1n2C)c1ccccc1` (stereo not shown) [Example 216, N-ethyl-5-methyl-4-oxo-N-phenyl-3-((THF-2-yl)methyl)-4,5-dihydro-3H-pyridazino[4,5-b]indole-1-carboxamide] are 30 to 80% and less than 10 µM.
In the same order, the values of `CCN(C(=O)c1nn(CC(C)(C)C)c(=O)c2c1c1ccccc1n2C)c1ccccc1` [Example 217, N-ethyl-5-methyl-3-neopentyl-4-oxo-N-phenyl-4,5-dihydro-3H-pyridazino[4,5-b]indole-1-carboxamide] are 10 to 30% and greater than 20 µM.
On to `CCN(C(=O)c1nn(C(C)c2ccccc2)c(=O)c2c1c1c(C)cccc1n2C)c1ccccc1` (stereo not shown) [Example 218, N-ethyl-5,9-dimethyl-4-oxo-N-phenyl-3-(1-phenylethyl)-4,5-dihydro-3H-pyridazino[4,5-b]indole-1-carboxamide], for which the Emax is greater than 80% and the EC50 is less than 10 µM.
Take `CCN(C(=O)c1nn(-c2ccc(C)cc2)c(=O)c2c1c1ccccc1n2C1CCC1)c1ccccc1` [Example 219, 5-cyclobutyl-N-ethyl-4-oxo-N-phenyl-3-p-tolyl-4,5-dihydro-3H-pyridazino[4,5-b]indole-1-carboxamide]: the Emax was 10 to 30%.
Still for that read-out and setting: next, `CCN(C(=O)c1nn(-c2ccc(C)cc2)c(=O)c2[nH]c3ccccc3c12)c1ccccc1` [Example 220, N-Ethyl-4-oxo-N-phenyl-3-p-tolyl-4,5-dihydro-3H-pyridazino[4,5-b]indole-1-carboxamide]: 30 to 80%.
Consider `CCN(C(=O)c1nn(-c2ccc(C)cc2)c(=O)c2[nH]c3ccccc3c12)c1cccc(Cl)c1` [Example 221, N-(3-chlorophenyl)-N-ethyl-4-oxo-3-(p-tolyl)-4,5-dihydro-3H-pyridazino[4,5-b]indole-1-carboxamide], for which the Emax lay within 30 to 80%.
In the case of `CCN(C(=O)Cn1ncc2c([nH]c3ccccc32)c1=O)c1ccc2c(c1)OC(F)(F)O2` [Example 222, N-(2,2-difluorobenzo[d][1, 3]dioxol-5-yl)-N-ethyl-2-(4-oxo-4,5-dihydro-3H-pyridazino[4,5-b]indol-3-yl)acetamide], the Emax fell in the range of 30 to 80% and the EC50 is greater than 20 µM.
In the case of `CCN(C(=O)c1nn(-c2ccc(C)cc2)c(=O)c2c1c1ccccc1n2CC#N)c1ccccc1` [Example 223, 5-(cyanomethyl)-N-ethyl-4-oxo-N-phenyl-3-(p-tolyl)-4,5-dihydro-3H-pyridazino[4,5-b]indole-1-carboxamide], the Emax lay within 30 to 80%.
